Measurements as given in US20120225135A1 (priority 2010, published 2012).
Values joined by “and” are separate entries in the source; they are usually repeats but may differ in a detail not shown here. Equal entries are not always repeated. Where two headings read alike, the source gives them in different places.

Tests used:
Total Count = assay: Disinfection of effluents, total count; assay type: cell-based; details: for Total Count: effluents, ClO2 dose 9.86 mg/L, 30 minutes; for Total Count per 100 mL: trickling filters effluents
Confirmed Coliform = assay: Disinfection of effluents, confirmed coliforms; assay type: cell-based; details: for Confirmed Coliforms: effluents, ClO2 dose 9.86 mg/L, 30 minutes; for Confirmed Coliform per 100 mL: trickling filters effluents
[1] = system: Total Plate Count (microbiological surface contamination)
E. coli = assay: Sanitation of fishing holds, E. coli; details: cleaned surface sprayed with 10 ppm ClO2 solution
Excerpt: (§1) Gross filth removed and washed in detergent
(§2) Cleaned surface sprayed with 10 ppm ClO2 solution

TPC = assay: Sanitation of fishing holds, TPC; details: cleaned surface sprayed with 10 ppm ClO2 solution
Excerpt: as §1, §2

[2] = assay type: physicochemical; details: for Found ppm: test level 0.13 ppm ClO2, taken 0.130 ppm
[3] = system: Legionella pneumophila, ATCC 33153; assay type: cell-based; details: pH 5
[4] = Residual ClO2 after contact with effluents or tap water (amperometric titration); assay type: physicochemical
[5] = ClO2 dose 2.7 mg/L, contact time 5 min
[6] = ClO2 dose 2.7 mg/L, contact time 20 min
[7] = ClO2 dose 2.7 mg/L, contact time 35 min
[8] = ClO2 dose 5.0 mg/L, contact time 15 min
[9] = ClO2 dose 5.0 mg/L, contact time 30 min
[10] = ClO2 dose 10.8 mg/L, contact time 5 min
[11] = ClO2 dose 10.8 mg/L, contact time 20 min
[12] = ClO2 dose 10.8 mg/L, contact time 35 min

With [O][Cl+][O-] [Chlorine Dioxide, chlorine dioxide] the “Total Count” value (Total Count; pH initial 4.6, final 4.4) was 5 MPN per 100 ml, the “Total Count” value (Total Count; pH initial 5.5, final 5.6) was 15 MPN per 100 ml and the “Total Count” value (Total Count; pH initial 6.5, final 6.7) was 30 MPN per 100 ml. For the same compound, the “Total Count” value (Total Count; pH initial 7.5, final 7.6) was 1 × 10^2 MPN per 100 ml, the “Total Count” value (Total Count; pH initial 8.2, final 8.1) was 2 × 10^2 MPN per 100 ml and the “Total Count” value (Total Count; pH initial 9.1, final 9.2) was 2.5 × 10^3 MPN per 100 ml. The “Total Count” value (Total Count; pH initial 10.0, final 10.0) was 6.8 × 10^2 MPN per 100 ml, the “Total Count per 100 mL” value (Total Count; [5]) was 6.75 × 10^7 per 100 mL and the “Total Count per 100 mL” value (Total Count; [6]) was 5.3 × 10^7 per 100 mL. For the same compound, the “Total Count per 100 mL” value (Total Count; [7]) was 3.1 × 10^7 per 100 mL, the “Total Count per 100 mL” value (Total Count; [8]) was 2.0 × 10^6 per 100 mL and the “Total Count per 100 mL” value (Total Count; [9]) was 1.6 × 10^5 per 100 mL. The “Total Count per 100 mL” value (Total Count; ClO2 dose 5.0 mg/L, contact time 45 min) was 9.0 × 10^4 per 100 mL, the “Total Count per 100 mL” value (Total Count; [10]) was 1.2 × 10^5 per 100 mL and the “Total Count per 100 mL” value (Total Count; [11]) was 2.9 × 10^4 per 100 mL. For the same compound, the “Total Count per 100 mL” value (Total Count; [12]) was 2.5 × 10^4 per 100 mL, the “Confirmed Coliforms” value (Confirmed Coliform; pH initial 4.6, final 4.4) was 2 MPN per 100 ml and the “Confirmed Coliforms” value (Confirmed Coliform; pH initial 5.5, final 5.6) was 2 MPN per 100 ml. For the same compound, the “Confirmed Coliforms” value (Confirmed Coliform; pH initial 6.5, final 6.7) was 4.5 MPN per 100 ml, the “Confirmed Coliforms” value (Confirmed Coliform; pH initial 7.5, final 7.6) was 17 MPN per 100 ml and the “Confirmed Coliforms” value (Confirmed Coliform; pH initial 8.2, final 8.1) was 33 MPN per 100 ml. For the same compound, the “Confirmed Coliforms” value (Confirmed Coliform; pH initial 9.1, final 9.2) was 7.9 × 10^2 MPN per 100 ml, the “Confirmed Coliforms” value (Confirmed Coliform; pH initial 10.0, final 10.0) was 1.3 × 10^4 MPN per 100 ml and the “Confirmed Coliform per 100 mL” value (Confirmed Coliform; [5]) was 1.3 × 10^7 per 100 mL. For the same compound, the “Confirmed Coliform per 100 mL” value (Confirmed Coliform; [6]) was 2.4 × 10^7 per 100 mL, the “Confirmed Coliform per 100 mL” value (Confirmed Coliform; [7]) was 2.4 × 10^6 per 100 mL and the “Confirmed Coliform per 100 mL” value (Confirmed Coliform; [8]) was 2.4 × 10^6 per 100 mL. The “Confirmed Coliform per 100 mL” value (Confirmed Coliform; [9]) was 1.1 × 10^2 per 100 mL, the “Confirmed Coliform per 100 mL” value (Confirmed Coliform; [10]) was 1.3 × 10^3 per 100 mL and the “Confirmed Coliform per 100 mL” value (Confirmed Coliform; [11]) was 14 per 100 mL. For the same compound, the “Confirmed Coliform per 100 mL” value (Confirmed Coliform; [12]) was 7.8 per 100 mL, the “TPC at day zero” value [1] was “less than 7×10^4” and the E. coli (E. coli) was “below level of detection”. The “TPC at day zero” value (TPC) was “less than 7×10^4”, the Mean ([2]; Day 1, n 6) was 0.126 ppm and the Found ppm ([2]; Day 1) was 0.128 ppm and 0.126 ppm and 0.115 ppm and 0.127 ppm and 0.133 ppm. For the same compound, the Mean ([2]; Day 5, n 6) was 0.122 ppm, the Found ppm ([2]; Day 5) was 0.125 ppm and 0.122 ppm and 0.117 ppm and 0.123 ppm and 0.118 ppm and the Mean ([2]; Day 15, n 5) was 0.129 ppm. For the same compound, the Found ppm ([2]; Day 15) was 0.133 ppm and 0.129 ppm and 0.127 ppm and 0.125 ppm and 0.131 ppm and 0.157* ppm, the Mean ([2]; Day 30, n 5) was 0.128 ppm and the Found ppm ([2]; Day 30) was 0.126 ppm and 0.130 ppm and 0.128 ppm and 0.125 ppm and 0.161* ppm. For the same compound, the Mean ([2]; Day 48, n 5) was 0.129 ppm, the Found ppm ([2]; Day 48) was 0.131 ppm and 0.127 ppm and 0.128 ppm and 0.164* ppm and the Mean ([2]; Day 96, n 4) was 0.133 ppm. For the same compound, the Found ppm ([2]; Day 96) was 0.137 ppm and 0.132 ppm and 0.128 ppm and 0.133 ppm and 0.161* ppm, the reduction in titer [3] was over 6 log 10 and the ClO2 residual ([4]; effluent, ClO2 dose 5.2 mg/L, contact time 3½ hrs) was 0.4 mg/L as ClO2. For the same compound, the ClO2 residual ([4]; effluent, ClO2 dose 5.2 mg/L, contact time 10 min) was 1.9 mg/L as ClO2, the ClO2 residual ([4]; effluent, ClO2 dose 5.2 mg/L, contact time 30 min) was 1.4 mg/L as ClO2 and the ClO2 residual ([4]; effluent, ClO2 dose 5.2 mg/L, contact time 1 hr) was 1.0 mg/L as ClO2. It also gave a ClO2 residual ([4]; effluent, ClO2 dose 5.2 mg/L, contact time 2 hrs) of 0.8 mg/L as ClO2, a ClO2 residual ([4]; effluent, ClO2 dose 5.2 mg/L, contact time 24 hrs) of 0 mg/L as ClO2 and a ClO2 residual ([4]; effluents, ClO2 dose 7.84 mg/L, contact time 10 min) of 3.0 mg/L as ClO2. It also gave a ClO2 residual ([4]; effluents, ClO2 dose 7.84 mg/L, contact time 30 min) of 2.6 mg/L as ClO2, a ClO2 residual ([4]; effluents, ClO2 dose 7.84 mg/L, contact time 60 min) of 2.1 mg/L as ClO2 and a ClO2 residual ([4]; effluents, ClO2 dose 7.84 mg/L, contact time 1.5 hr) of 1.9 mg/L as ClO2. It also gave a ClO2 residual ([4]; effluents, ClO2 dose 7.84 mg/L, contact time 2.5 hr) of 1.5 mg/L as ClO2, a ClO2 residual ([4]; effluents, ClO2 dose 7.84 mg/L, contact time 3.5 hr) of 1.0 mg/L as ClO2 and a ClO2 residual ([4]; effluents, dose 19.2 mg/L, 20 minutes, pH initial 4, final 3.4) of 4.66 mg/L as ClO2. The ClO2 residual ([4]; effluents, dose 19.2 mg/L, 20 minutes, pH initial 5, final 4.6) was 4.37 mg/L as ClO2, the ClO2 residual ([4]; effluents, dose 19.2 mg/L, 20 minutes, pH initial 6, final 6.45) was 4.95 mg/L as ClO2 and the ClO2 residual ([4]; effluents, dose 19.2 mg/L, 20 minutes, pH initial 7.5, final 7.3) was 3.84 mg/L as ClO2. For the same compound, the ClO2 residual ([4]; effluents, dose 19.2 mg/L, 20 minutes, pH initial 9, final 8.8) was 1.27 mg/L as ClO2, the ClO2 residual ([4]; effluents, dose 19.2 mg/L, 20 minutes, pH initial 10, final 9.9) was 0.11 mg/L as ClO2 and the ClO2 residual ([4]; effluents, dose 37.5 mg/L, 20 minutes, pH initial 4.0, final 3.5) was 25.84 mg/L as ClO2.
